Where two headings read alike, the source gives them in different places. Marks after values point to notes of the source that are not given here.
Assays:
[1] = Phase I DDI study Part 2: tazemetostat plasma PK alone and with rifampin (noncompartmental analysis); assay type: in vivo, human; conditions: for AUC0‐12h ratio, geoLSM (90% CI) / Cmax ratio, geoLSM (90% CI): steady state with rifampin vs alone, Day 24 versus Day 15; for RacAUC (AUC0‐12h accumulation ratio), geoLSM (90% CI) / RacCmax (Cmax accumulation ratio), geoLSM (90% CI): tazemetostat 800 mg alone, Day 15 versus Day 1; for Tmax / AUC / AUC(0-t) / Cmax / half-life: human; for Tmax: read-out: tmax, median (range)
Text: This was a Phase I, multicenter, open‐label, 2‐part study encompassing a fixed‐sequence design that aimed to characterize the PK of tazemetostat when administered as single and twice‐daily oral doses alone or in combination with either itraconazole (Part 1) or rifampin (Part 2). Secondary objectives were to evaluate the safety profile of tazemetostat when coadministered with either itraconazole (Part 1) or rifampin (Part 2).
Part 2 of the study evaluated the DDI between tazemetostat and rifampin. On the mornings of Days 1 and 15, patients received a single dose of tazemetostat 800 mg orally. On Days 3‐14, patients received tazemetostat 800 mg twice daily. On Days 17‐23, patients received tazemetostat 800 mg twice daily, coadministered in the morning with a single dose of rifampin 600 mg orally. On the morning of Day 24, patients received a single dose of tazemetostat 800 mg coadministered with rifampin 600 mg. On the morning of Day 25, patients received rifampin 600 mg (Figure 1B). Throughout Part 2, administration of rifampin occurred 1 hour before a meal.
In Part 2, plasma concentrations of tazemetostat following tazemetostat dosing on Days 1, 15, and 24 were quantified for PK analyses before dosing (0 hour) and at 0.5, 1, 1.5, 2, 4, 6, 8, 12, 24, 36, and 48 hours.
Plasma concentrations of tazemetostat, over the ranges of 1.00‐2000 ng/mL, were quantified by a fully validated liquid chromatography with tandem mass spectrometric detection analytical method. Samples that had no detectable peak or had the calculated concentration <1.00 ng/mL were reported as below the lower limit of quantification. Tazemetostat analysis consisted of protein precipitation extraction and separation using mobile phases of 100 mM ammonium formate/water (1:9 v/v) (mobile phase A) and 100 mM ammonium formate/acetonitrile (1:9 v/v) (mobile phase B). Detection was achieved using an API‐5500 mass spectrometer (AB Sciex) using electrospray ionization (positive‐ion mode) in the multiple reaction monitoring mode. The multiple reaction monitoring mode m/z transitions monitored were […] for tazemetostat and the dwell time was set at 300 milliseconds.
Plasma concentration‐time data for tazemetostat were analyzed by noncompartmental analysis using the validated software program Phoenix WinNonlin Professional Version 8.3 (Certara Inc., Mountain View, CA).

[2] = Safety (TEAEs) Part 1: tazemetostat coadministered with itraconazole
Experimental: Part 1 of the study evaluated the DDI between tazemetostat and itraconazole. On the mornings of Days 1 and 15, patients received a single dose of tazemetostat 400 mg orally. On Days 3‐14, patients received tazemetostat 400 mg twice daily (morning and evening). On Days 18‐20, patients received itraconazole 200 mg orally once daily in the morning. On Days 21‐35, tazemetostat 400 mg twice daily was coadministered in the morning with a single dose of itraconazole 200 mg. On Day 36, patients received a single dose of tazemetostat 400 mg coadministered in the morning with a single dose of itraconazole 200 mg. On Days 37 and 38, patients received a single dose of itraconazole 200 mg (Figure 1A). Throughout Part 1, administration of itraconazole occurred 1 hour after a meal.
Safety was assessed by monitoring treatment‐emergent adverse events (TEAEs) and vital signs, electrocardiography, and clinical laboratory tests. TEAEs were defined as adverse events that started or worsened in severity on or after the date of the first dose of the study drug through 30 days after the last dose. Treatment‐related TEAEs were summarized by each study drug for both study parts. Adverse events were coded using the Medical Dictionary for Regulatory Activities Version 23.1 and graded per Common Terminology Criteria for Adverse Events Version 5.0.

[3] = Part 2, tazemetostat 800 mg twice daily alone, multiple dosing, Day 15, plasma

SMILES: CCN(c1cc(-c2ccc(CN3CCOCC3)cc2)cc(C(=O)NCc2c(C)cc(C)[nH]c2=O)c1C)C1CCOCC1 [Tazemetostat]
- AUC0‐12h ratio, geoLSM (90% CI) ([1]; Part 2): 0.163 (0.128‐0.208) ^d
- Cmax ratio, geoLSM (90% CI) ([1]; Part 2): 0.164 (0.122‐0.219) ^d
- AUC0‐12h ratio, geoLSM (90% CI) ([1]; Part 2, listed as tazemetostat): 0.163
- Cmax ratio, geoLSM (90% CI) ([1]; Part 2, listed as tazemetostat): 0.164
- RacAUC (AUC0‐12h accumulation ratio), geoLSM (90% CI) ([1]; Part 2): 0.816 (0.638‐1.04) ^e
- RacCmax (Cmax accumulation ratio), geoLSM (90% CI) ([1]; Part 2): 0.828 (0.635‐1.08) ^e
- RacAUC (AUC0‐12h accumulation ratio), geoLSM (90% CI) ([1]; Part 2, listed as tazemetostat): 0.816
- RacCmax (Cmax accumulation ratio), geoLSM (90% CI) ([1]; Part 2, listed as tazemetostat): 0.828
- t1/2, GeoMean (CV%) [1, 3]: 7.55 (20.3) hour
- tmax, median (range) [1, 3]: 1.00 (0.63‐4.00) hour
- Tmax ([1]; oral, Part 2, tazemetostat 800 mg multiple dosing with rifampin 600 mg once daily, Day 24, plasma): 1.01 h
- AUC ([1]; plasma, oral, 800 mg, Part 2, tazemetostat 800 mg twice daily alone, multiple dosing, Day 15, plasma, read-out: AUC0‐12 h, GeoMean (CV%)): 3610 ng·h/mL
- AUC ([1]; plasma, oral, 800 mg, Part 2, tazemetostat 800 mg twice daily alone, multiple dosing, Day 15, plasma, read-out: AUC0‐12 h, mean (SD)): 4330 ng·h/mL
- AUC(0-t) ([1]; plasma, oral, 800 mg, Part 2, tazemetostat 800 mg twice daily alone, multiple dosing, Day 15, plasma, read-out: AUClast, GeoMean (CV%)): 4270 ng·h/mL
- AUC(0-t) ([1]; plasma, oral, 800 mg, Part 2, tazemetostat 800 mg twice daily alone, multiple dosing, Day 15, plasma, read-out: AUClast, mean (SD)): 5220 ng·h/mL
- Cmax ([1]; plasma, oral, 800 mg, Part 2, tazemetostat 800 mg twice daily alone, multiple dosing, Day 15, plasma, read-out: Cmax, GeoMean (CV%)): 1100 ng/mL
- Cmax ([1]; plasma, oral, 800 mg, Part 2, tazemetostat 800 mg twice daily alone, multiple dosing, Day 15, plasma, read-out: Cmax, mean (SD)): 1380 ng/mL
- half-life ([1]; plasma, oral, 800 mg, Part 2, tazemetostat 800 mg twice daily alone, multiple dosing, Day 15, plasma, read-out: t1/2, mean (SD) (converted)): 462 min
- AUC ([1]; plasma, oral, Part 2, tazemetostat 800 mg multiple dosing with rifampin 600 mg once daily, Day 24, plasma, read-out: AUC0‐12 h, GeoMean (CV%)): 588 ng·h/mL
- AUC ([1]; plasma, oral, Part 2, tazemetostat 800 mg multiple dosing with rifampin 600 mg once daily, Day 24, plasma, read-out: AUC0‐12 h, mean (SD)): 770 ng·h/mL
- AUC(0-t) ([1]; plasma, oral, Part 2, tazemetostat 800 mg multiple dosing with rifampin 600 mg once daily, Day 24, plasma, read-out: AUClast, GeoMean (CV%)): 676 ng·h/mL
- AUC(0-t) ([1]; plasma, oral, Part 2, tazemetostat 800 mg multiple dosing with rifampin 600 mg once daily, Day 24, plasma, read-out: AUClast, mean (SD)): 934 ng·h/mL
- Cmax ([1]; plasma, oral, Part 2, tazemetostat 800 mg multiple dosing with rifampin 600 mg once daily, Day 24, plasma, read-out: Cmax, GeoMean (CV%)): 181 ng/mL
- Cmax ([1]; plasma, oral, Part 2, tazemetostat 800 mg multiple dosing with rifampin 600 mg once daily, Day 24, plasma, read-out: Cmax, mean (SD)): 233 ng/mL
- half-life ([1]; plasma, oral, Part 2, tazemetostat 800 mg multiple dosing with rifampin 600 mg once daily, Day 24, plasma, read-out: t1/2, GeoMean (CV%) (converted)): 292 min
- half-life ([1]; plasma, oral, Part 2, tazemetostat 800 mg multiple dosing with rifampin 600 mg once daily, Day 24, plasma, read-out: t1/2, mean (SD) (converted)): 304 min
- AUC ([1]; plasma, po, 800 mg, Part 2, tazemetostat 800 mg oral single dose alone, Day 1, plasma, read-out: AUC0‐12 h, GeoMean (CV%)): 4420 ng·h/mL
- AUC ([1]; plasma, po, 800 mg, Part 2, tazemetostat 800 mg oral single dose alone, Day 1, plasma, read-out: AUC0‐12 h, mean (SD)): 5310 ng·h/mL
- AUC(0-t) ([1]; plasma, po, 800 mg, Part 2, tazemetostat 800 mg oral single dose alone, Day 1, plasma, read-out: AUClast, GeoMean (CV%)): 5200 ng·h/mL
- AUC(0-t) ([1]; plasma, po, 800 mg, Part 2, tazemetostat 800 mg oral single dose alone, Day 1, plasma, read-out: AUClast, mean (SD)): 6370 ng·h/mL
- Cmax ([1]; plasma, po, 800 mg, Part 2, tazemetostat 800 mg oral single dose alone, Day 1, plasma, read-out: Cmax, GeoMean (CV%)): 1330 ng/mL
- Cmax ([1]; plasma, po, 800 mg, Part 2, tazemetostat 800 mg oral single dose alone, Day 1, plasma, read-out: Cmax, mean (SD)): 1550 ng/mL
- half-life ([1]; plasma, po, 800 mg, Part 2, tazemetostat 800 mg oral single dose alone, Day 1, plasma, read-out: t1/2, GeoMean (CV%) (converted)): 373 min
- half-life ([1]; plasma, po, 800 mg, Part 2, tazemetostat 800 mg oral single dose alone, Day 1, plasma, read-out: t1/2, mean (SD) (converted)): 389 min
- Tmax ([1]; Part 2, tazemetostat 800 mg oral single dose alone, Day 1, plasma): 1.04 h
- decrease of tazemetostat steady‐state exposure (Cmax and AUC0‐12h) by rifampin ([1]; steady state, Day 24/Day 15): approximately 84%
- Deaths due to serious TEAEs ([2]; Part 1, within 30 days following the last dose, tazemetostat with itraconazole, neither considered treatment related): Two deaths
- Any TEAE Grade 3 or 4, patients ([2]; human, in vivo): 11 (52.4) n (%)
- Any TEAE leading to dose reduction, patients ([2]; human, in vivo): 0 n (%)
- Any TEAE leading to study drug discontinuation, patients ([2]; human, in vivo): 1 (4.8) n (%)
- Any TEAE leading to study drug interruption, patients ([2]; human, in vivo): 9 (42.9) n (%)
- Any TESAE, patients ([2]; human, in vivo): 8 (38.1) n (%)
- Any treatment-related TEAE Grade 3 or 4, patients ([2]; human, in vivo): 2 (9.5) n (%)
- Any treatment-related TESAE, patients ([2]; human, in vivo): 0 n (%)
- TEAE anemia, frequency ([2]; human, in vivo): 28.6%
- TEAE constipation, frequency ([2]; human, in vivo): 23.8%
- TEAE decreased appetite, frequency ([2]; human, in vivo): 33%
- TEAE dyspnea, frequency ([2]; human, in vivo): 33%
- TEAE fatigue, frequency ([2]; human, in vivo): 28.6%
- TEAE nausea, frequency ([2]; human, in vivo): 28.6%
- Treatment-related TEAE Grade 3 or 4, related to the named study drug, patients ([2]; human, in vivo): 2 (9.5) n (%)
- Treatment-related TEAEs, related to the named study drug, patients ([2]; human, in vivo): 12 (57.1) n (%)
- Treatment-related TESAE, related to the named study drug, patients ([2]; human, in vivo): 0 n (%)
- Treatment‐related Grade 3/4 TEAE anemia ([2]; human, in vivo): 9.5%
- Treatment‐related Grade 3/4 TEAE hyponatremia ([2]; human, in vivo): 4.8%

Reference: PMC12209990, “Effect of Cytochrome P450 3A Inhibition and Induction by Itraconazole and Rifampin on Tazemetostat Pharmacokinetics in Patients With Advanced Malignancies” (Clinical Pharmacology in Drug Development, 2025)
